The experiment deals with T1, human flk-1 (Homo sapiens, UniProt P35968).
T1 construct: host or cells: Flk-1/NIH cells (NIH fibroblasts)
The experiment is described as follows: Biochemical FLK-1 assay (flk-1 autophosphorylation ELISA). The note with it: read-out: bio FLK1 IC50 (μM) % if inhibition at 100. As to the method:
This assay evaluates flk-1 autophosphorylation activity in vitro using ELISA.
Materials And Reagents • 1. 15 cm tissue culture dishes • 2. Flk-1/NIH cells: NIH fibroblast line over-expressing human flk-1clone 3 (SUGEN, Inc., obtained from MPI, Martinsried, Germany). • 3. Growth medium: DMEM plus heat inactivated 10% FBS and 2 mM Glutamine (Gibco-BRL). • 4. Starvation medium: DMEM plus 0.5% heat-inactivated FBS, 2 mM Glutamine (Gibco-BRL). • 5. […] L4 or E38 monoclonal antibody specific for flk-1, Purified by Protein-A agarose affinity chromatography (SUGEN, Inc.). • 7. PBS (Dulbecco's Phosphate-Buffered Saline) Gibco Cat. No. 450-1300EB). • 8. HNTG (see BIOCHEMICAL FGFR for preparation). • 9. Pierce BCA protein determination kit. • 10. Blocking buffer • 11. TBST (pH 7.0) • 12. Kinase Buffer • 13. Kinase Stop Solution: 200 mM EDTA. • 14. […] AB kit (Vector Laboratories Cat. No. PK 4000). • 16. DMSO • 17. NUNC 96-well V bottom polypropylene plates (Applied Scientific Cat. No. AS-72092). • 18. Turbo-TMB (Pierce). • 19. Turbo-TMB stop solution: 1 M H2SO4. • 20. ATP (Sigma Cat. No. A-7699). • 21. 20% DMSO in TBS (pH 7.0). Procedure
Cell Growth and Lysate Preparation. • 1. Seed cell into growth medium and grow for 2-3 days to 90-100% confluency at 37° C. and 5% CO2.
2. Remove the medium and wash the cells twice with PBS. Lyse with HNTG lysis buffer. Collect all lysates and vortex mix them for 20-30 seconds. • 3. Remove insoluble material by centrifugation (5-10 min at about 10,000 ×g). • 4. Determine the protein concentration using BCA kit. • 5. Partition lysate into 1 mg aliquots, store at −80° C.
Assay Procedure • 1. Coat Corning 96-well ELISA plates with 2 μg/well purified L4 (or E 38) in 100 μl of PBS. Store overnight at […] • 2. Remove unbound proteins from wells by inverting the plate to remove the liquid. Wash one time with dH2O, pat plate on paper towel to remove excess liquid. • 3. Block plates with 150 μl blocking buffer per well. Incubate for 45-60 minutes with shaking at 4° C. • 4. Remove the blocking buffer and wash the ELISA plate three times with dH2O and one time with TBST. Pat plate on paper towel to remove excess liquid. • 5. Dilute lysate in PBS to give final concentration of 50 μg/100 μl. Add 100 μl of diluted lysate to each well. Incubate with shaking at 4° C. overnight. • 6. Remove unbound proteins from wells by inverting the plate. Wash as in step 4. • 7. Add 80 μl of kinase buffer to wells (90 μl to negative control wells). • 8. Dilute test compounds (normally 10-fold) into wells of a polypropylene plate containing 20% DMSO in TBS. • 9. Add 10 μl of the diluted compounds to the ELISA wells containing immobilized flk-1 and shake. Control wells receive no compounds. • 10. From stock 1 mM ATP, prepare 0.3 mM ATP solution in dH2O (alternatively, kinase buffer may be used). • 11. Add 10 μl of 0.3 mM ATP to all wells except the negative controls. Incubate for 60 min. at room temperature with shaking. • 12. After 1 hr stop the kinase reaction by adding 11 μl 200 mM EDTA. Shake for 1-2 min. • 13. Wash the ELISA plate 4 times with dH2O and twice with TBST. • 14. Add 100 μl of 1:5000 biotinylated 4G10:TBST to all wells. Incubate 45 min with shaking at room temperature. • 15. While the above is incubating, add 50 μl of solutions A & B from the ABC kit to 10 ml of TBST. These solutions must be combined approximately 30 min prior to use. • 16. Wash plates as in step 4. • 17. Add 100 μl of the preformed A & B complex to all wells. Incubate 30 min with shaking at room temperature. • 18. Wash plates as in step 4. • 19. Add 100 μl turbo-TMB. Shake at room temperature for 10-15 min. • 20. When the color in the positive control wells reaches an absorbance of about 0.35-0.4, stop the reaction with 100 μl of turbo-TMB stop solution. • 21. Read plates on Dynatech MR7000 ELISA reader, test filter: 450 nM, reference filter: 410 nM.

SMILES strings stand for the structures. Structures can show the parent of a compound that is named as a salt.

T1 sequence (P35968 20-1356): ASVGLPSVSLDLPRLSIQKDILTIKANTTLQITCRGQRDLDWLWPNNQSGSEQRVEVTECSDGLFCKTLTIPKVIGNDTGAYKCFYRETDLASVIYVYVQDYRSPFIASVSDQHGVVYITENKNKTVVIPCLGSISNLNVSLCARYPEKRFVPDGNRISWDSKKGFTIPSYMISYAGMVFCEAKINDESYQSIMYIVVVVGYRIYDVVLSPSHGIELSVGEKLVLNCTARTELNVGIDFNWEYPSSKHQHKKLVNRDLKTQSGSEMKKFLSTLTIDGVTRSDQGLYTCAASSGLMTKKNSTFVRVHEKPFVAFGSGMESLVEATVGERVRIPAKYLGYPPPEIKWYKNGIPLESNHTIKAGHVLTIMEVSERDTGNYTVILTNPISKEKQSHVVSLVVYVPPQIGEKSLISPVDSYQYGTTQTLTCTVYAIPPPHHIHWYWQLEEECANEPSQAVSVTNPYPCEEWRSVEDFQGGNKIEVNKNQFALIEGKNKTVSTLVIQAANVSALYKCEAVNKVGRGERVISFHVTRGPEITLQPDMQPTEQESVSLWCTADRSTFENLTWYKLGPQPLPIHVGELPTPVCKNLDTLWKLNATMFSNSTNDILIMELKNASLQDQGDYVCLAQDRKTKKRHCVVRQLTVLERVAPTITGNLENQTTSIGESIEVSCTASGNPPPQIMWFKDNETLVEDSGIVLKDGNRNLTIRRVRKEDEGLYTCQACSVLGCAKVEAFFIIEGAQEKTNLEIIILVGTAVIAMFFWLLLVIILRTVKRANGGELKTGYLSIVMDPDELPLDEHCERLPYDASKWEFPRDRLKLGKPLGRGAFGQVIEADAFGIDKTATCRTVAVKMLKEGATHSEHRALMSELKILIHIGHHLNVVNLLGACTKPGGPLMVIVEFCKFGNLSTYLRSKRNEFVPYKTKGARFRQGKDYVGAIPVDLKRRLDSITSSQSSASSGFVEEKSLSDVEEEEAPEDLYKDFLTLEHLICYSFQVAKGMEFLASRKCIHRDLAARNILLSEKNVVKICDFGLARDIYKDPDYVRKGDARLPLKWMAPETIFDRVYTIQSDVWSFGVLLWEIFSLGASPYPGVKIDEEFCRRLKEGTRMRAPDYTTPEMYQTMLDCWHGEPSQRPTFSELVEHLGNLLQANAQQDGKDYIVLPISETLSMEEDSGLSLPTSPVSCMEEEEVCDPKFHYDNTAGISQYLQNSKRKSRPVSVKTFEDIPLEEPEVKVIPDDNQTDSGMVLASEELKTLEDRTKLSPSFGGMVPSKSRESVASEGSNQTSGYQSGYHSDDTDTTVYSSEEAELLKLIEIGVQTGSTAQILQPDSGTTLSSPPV

Take `Cc1c(/C=C2\C(=O)Nc3ccc(C(=O)O)cc32)[nH]c2ccccc12` [Example 156, 3-(3-Methyl-1H-indol-2-ylmethylene)-2-oxo-2,3-dihydro-1H-indole-5-carboxylic acid (piperidine salt)]: the 50% inhibitory concentration (IC50) worked out at 4.2 µM.

The term IC50 denotes the point on the concentration scale where inhibition reaches its midpoint.

(Values after patent publication US6855730B2, “3-methylidenyl-2-indolinone modulators of protein kinase” (Sugen, Inc., priority 1998, dated 2005).)
